Usually Ki stands for a dissociation constant, usually derived from enzyme kinetics or from competition with a known ligand.

For this test, the target named is T1, histamine 3 receptor (H3R) (Homo sapiens, UniProt Q9Y5N1).
T1 construct: expressed in transfected cells; host or cells: CHO cells (HR3-CHO)
T1 sequence (Q9Y5N1 whole entry): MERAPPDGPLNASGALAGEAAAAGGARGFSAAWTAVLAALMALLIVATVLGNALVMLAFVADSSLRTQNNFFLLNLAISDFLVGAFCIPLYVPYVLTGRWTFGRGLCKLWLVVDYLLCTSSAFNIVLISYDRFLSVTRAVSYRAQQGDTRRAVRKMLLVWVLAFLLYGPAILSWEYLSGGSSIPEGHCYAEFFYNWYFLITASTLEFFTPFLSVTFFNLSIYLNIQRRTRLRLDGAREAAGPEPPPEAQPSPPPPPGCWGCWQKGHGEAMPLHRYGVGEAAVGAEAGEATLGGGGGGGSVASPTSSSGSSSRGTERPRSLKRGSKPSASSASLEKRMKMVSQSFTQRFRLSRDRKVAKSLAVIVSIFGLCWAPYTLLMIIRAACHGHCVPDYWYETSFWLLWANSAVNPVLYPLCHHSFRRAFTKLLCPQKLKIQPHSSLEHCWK
Briefly: Binding assay with 3H-(R)α-methylhistamine (competition binding). Conditions: competition with 3H(R)α-methylhistamine (1 nM), membranes of the human HR3-CHO cell line; Ki calculated from IC50 by Cheng-Prusoff. Here is the method: Binding Assay with ^3H—(R)α-methylhistamine
Saturation binding experiments were performed using HR3-CHO membranes prepared as described in Takahashi, K, Tokita, S., Kotani, H. (2003) J. Pharmacol. Exp. Therapeutics 307, 213-218.
An appropriate amount of membrane (60 to 80 μg protein/well) was incubated with increasing concentrations of ^3H(R)α-Methylhistamine di-hydrochloride (0.10 to 10 nM). Non specific binding was determined using a 200 fold excess of cold (R)α-Methylhistamine dihydrobromide (500 nM final concentration). The incubation was carried out at room temperature (in deep-well plates shaking for three hours). The final volume in each well was 250 μl. The incubation was followed by rapid filtration on GF/B filters (pre-soaked with 100 μl of 0.5% PEI in Tris 50 mM shaking at 200 rpm for two hours). The filtration was made using a cell-harvester and the filter plates were then washed five times with ice cold washing buffer containing 0.5 M NaCl. After harvesting, the plates were dried at 55° C. for 60 min, then scintillation fluid (Microscint 40, 40 microl in each well) was added and the amount of radioactivity on the filter was determined in Packard top-counter after shaking the plates for two hours at 200 rpm at room temperature.
Binding Buffer: 50 mM Tris-HCl pH 7.4 and 5 mM MgCl2×6H2O pH 7.4. Washing Buffer: 50 mM Tris-HCl pH 7.4 and 5 mM MgCl2×6H2O and 0.5 M NaCl pH 7.4.
Indirect measurement of affinity of H3R inverse agonists: twelve increasing concentrations (ranging from 10 μM to 0.3 nM) of the selected compounds were always tested in competition binding experiments using membranes of the human HR3-CHO cell line. An appropriate amount of protein, e.g. approximately 500 cpm binding of RAMH at Kd, were incubated for 1 hour at room temperature in 250 μl final volume in 96-well plates in presence of ^3H(R)α-Methylhistamine (1 nM final concentration=Kd). Non-specific binding was determined using a 200 fold excess of cold (R)α-Methylhistamine dihydrobromide.
All compounds were tested at a single concentration in duplicate. […] The concentration at which 50% inhibition of the radioligand ^3H(R)α-methylhistamine is obtained (the IC50) is determined from the linear regression of a plot of the logarithm of the concentration versus percent inhibition measured for the different concentrations. Ki's were calculated from IC50 based on Cheng-Prusoff equation (Cheng, Y, Prusoff, W H (1973) Biochem Pharmacol 22, 3099-3108): Ki=IC50/[1+D/Kd] wherein D is the concentration of the radioligand and Kd is the binding constant for the radioligand binding to the receptor under the conditions used in the competition experiment.
`COC(=O)N1CCN(C(=O)c2oc3cc(OC4CCN(C5CCC5)CC4)c(Cl)cc3c2C(C)C)CC1` [Example 76, 4-[5-Chloro-6-(1-cyclobutyl-piperidin-4-yloxy)-3-isopropyl-benzofuran-2-carbonyl]-piperazine-1-carboxylic acid methyl ester]: the Ki was 0.5 nM.
For `Cc1c(C(=O)N2CCC(F)(F)CC2)oc2cc(OC3CCN(C4CCC4)CC3)c(Cl)cc12` [Example 91, [5-Chloro-6-(1-cyclobutyl-piperidin-4-yloxy)-3-methyl-benzofuran-2-yl]-(4,4-difluoro-piperidin-1-yl)-methanone], the Ki was 2.6 nM.
Turning to `O=C(c1oc2cc(OC3CCN(C4CCC4)CC3)ccc2c1-c1ccc(F)cc1)N1CCC(F)(F)CC1` [Example 65, [6-(1-Cyclobutyl-piperidin-4-yloxy)-3-(4-fluoro-phenyl)-benzofuran-2-yl]-(4,4-difluoro-piperidin-1-yl)-methanone], the Ki was 0.1 nM.
As for `CC(C)N1CCC(Oc2cc3oc(C(=O)N4CCS(=O)(=O)CC4)c(-c4ccc(F)cc4)c3cc2Cl)CC1` [Example 82, [5-Chloro-3-(4-fluoro-phenyl)-6-(1-isopropyl-piperidin-4-yloxy)-benzofuran-2-yl]-(1,1-dioxo-1λ6thiomorpholin-4-yl)-methanone], the figure is 0.4 nM; as for `CC(C)N1CCC(Oc2cc3cc(C(=O)N4CCS(=O)(=O)CC4)sc3cc2Cl)CC1` [Example 69, [6-Chloro-5-(1-isopropyl-piperidin-4-yloxy)-benzo[b]thiophen-2-yl]-(1,1-dioxo-1λ6thiomorpholin-4-yl)-methanone], 1.5 nM; as for `COC(=O)N1CCN(C(=O)c2oc3cc(OC4CCN(C(C)C)CC4)ccc3c2-c2ccc(F)cc2)CC1` [Example 45, 4-[3-(4-Fluoro-phenyl)-6-(1-isopropyl-piperidin-4-yloxy)-benzofuran-2-carbonyl]-piperazine-1-carboxylic acid methyl ester], 0.4 nM.
Regarding `COC(=O)N1CCN(C(=O)c2oc3cc(OC4CCN(C(C)C)CC4)c(Cl)cc3c2C(C)C)CC1` [Example 72, 4-[5-Chloro-3-isopropyl-6-(1-isopropyl-piperidin-4-yloxy)-benzofuran-2-carbonyl]-piperazine-1-carboxylic acid methyl ester], the Ki was 0.8 nM.
Consider `COC(=O)N1CCN(C(=O)c2oc3cc(OC4CCN(C5CCC5)CC4)c(Cl)cc3c2C)CC1` [Example 94, 4-[5-Chloro-6-(1-cyclobutyl-piperidin-4-yloxy)-3-methyl-benzofuran-2-carbonyl]-piperazine-1-carboxylic acid methyl ester], for which the Ki is 2.3 nM.
Take `CC(C)N1CCC(Oc2ccc3c(-c4ccccc4)c(C(=O)N4CCC(F)(F)CC4)oc3c2)CC1` [Example 17, (4,4-Difluoro-piperidin-1-yl)-[6-(1-isopropyl-piperidin-4-yloxy)-3-phenyl-benzofuran-2-yl]-methanone]: the Ki was 1.3 nM.
